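Dose response: 5 concentrations. Exposure: 48 h. Format: 96-well plates. Endpoint: linear interpolation; highest concentration if not reached. TGI marks complete inhibition of growth.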
What was measured:
Experiment in all cases: NCI-60 cell line screen, 48 h
[1] = system: EKVX NSCLC
[2] = system: HOP-62 NSCLC
[3] = system: HS 578T breast
[4] = system: KM12 colon
[5] = system: NCI-H23 lung
[6] = system: NCI-H460 lung
[7] = system: OVCAR-8 ovarian
[8] = system: PC-3 prostate
[9] = system: SK-MEL-28 melanoma
[10] = system: SN12C renal
[11] = system: SNB-75 CNS
[12] = system: SW-620 colon
[13] = system: UACC-257 melanoma
[14] = system: UACC-62 melanoma
[15] = system: NCI-H226 lung
[16] = system: OVCAR-3 ovarian
[17] = system: U251 CNS
[18] = system: UO-31 renal
[19] = system: HOP-92 NSCLC

SMILES	TGI [1] [µM]	TGI [2] [µM]	TGI [3] [µM]	TGI [4] [µM]	TGI [5] [µM]	TGI [6] [µM]	TGI [7] [µM]	TGI [8] [µM]	TGI [9] [µM]	TGI [10] [µM]	TGI [11] [µM]	TGI [12] [µM]	TGI [13] [µM]	TGI [14] [µM]	TGI [15] [µM]	TGI [16] [µM]	TGI [17] [µM]	TGI [18] [µM]	TGI [19] [µM]
Cc1nn(C(=O)Cc2ccccc2)c2c1C(c1ccc(Cl)cc1)SC(N)=N2 (centres undefined)	> 100	> 100	> 100	> 100	> 100	> 100	> 100	> 100	> 100	> 100	96.9	> 100	> 100	> 100	–	–	–	–	–
COC1=CC2C(c3cc4ccccc4n3S(=O)(=O)c3ccccc3)CC1CN2C(=O)OCc1ccccc1 (centres undefined)	82.2	> 100	> 100	> 100	> 100	> 100	> 100	> 100	–	> 100	33.7	> 100	> 100	> 100	> 100	> 100	> 100	> 100	–
CC(=O)N(CCc1ccccc1)C(C#N)c1ccccc1 (centres undefined)	> 100	> 100	> 100	> 100	> 100	–	> 100	> 100	–	> 100	> 100	> 100	> 100	> 100	> 100	> 100	> 100	> 100	–
COc1cc(O)c(C(=O)/C=C/c2ccc(O)cc2)cc1Oc1ccc(/C=C/C(=O)c2ccc(O)cc2O)cc1	27.7	18.7	> 50	15.5	33.2	30.4	24.7	22.1	15.2	19.4	20.1	38.5	23.2	17.6	–	17	17.2	18.2	22.2
COc1cc(C(C)=O)cc(C(=O)N(C(C)C)C(C)C)c1[Si](C)(C)C	–	> 100	> 100	> 100	> 100	> 100	> 100	> 100	> 100	–	56.4	> 100	> 100	> 100	> 100	> 100	> 100	> 100	> 100
COc1ccc(NC(=O)N(C)CC2(O)CCC(C(C)(C)C)CC2)cc1 (centres undefined)	> 100	> 100	> 100	> 100	> 100	> 100	> 100	> 100	> 100	> 100	> 100	> 100	> 100	97.3	–	81.4	> 100	> 100	90.4
COc1ccc(-n2cnn3c(=O)c4cn[nH]c4nc23)cc1	> 10	–	> 10	> 10	> 10	> 10	> 10	> 10	–	> 10	> 10	–	> 10	–	> 10	> 10	> 10	> 10	> 10
CN(C)CCNC(=O)c1ccc2nc3c(nc2c1)C(=O)c1ccccc1-3	> 100	> 100	> 100	> 100	> 100	38.6	> 100	> 100	> 100	> 100	> 100	> 100	> 100	> 100	–	> 100	71.5	> 100	> 100
CC(=O)O[C@H]1CCC2[C@@H]3CCC4Nc5oncc5C[C@]4(C)C3CC[C@@]21C (some centres undefined)	–	> 10	–	> 10	> 10	> 10	> 10	> 10	> 10	> 10	–	> 10	> 10	–	> 10	> 10	> 10	> 10	> 10
O=C(Nc1nncs1)NS(=O)(=O)n1c(=S)sc2ccccc21	> 100	> 100	> 100	> 100	> 100	> 100	> 100	> 100	> 100	> 100	> 100	> 100	> 100	> 100	–	> 100	> 100	> 100	> 100
CCOC(=O)CO/N=C1/C(c2c(O)[nH]c3ccccc23)=Nc2ccccc21	> 100	46	> 100	> 100	> 100	> 100	> 100	> 100	> 100	> 100	9.88	> 100	> 100	> 100	–	55	66.1	> 100	63.3
Cn1c(=O)oc2cc(C(O)CN3CCN(Cc4ccccn4)CC3)c(Cl)cc21 (centres undefined)	> 100	> 100	–	> 100	> 100	> 100	> 100	> 100	> 100	> 100	> 100	> 100	> 100	> 100	> 100	> 100	> 100	> 100	> 100
COc1ccc(-c2csc(Cc3nc4ccccc4c(=O)n3-c3ccc(Cl)cc3)n2)cc1	62.7	> 100	> 100	> 100	> 100	> 100	> 100	> 100	59.5	–	> 100	> 100	> 100	68.3	> 100	> 100	> 100	> 100	–

Source: PubChem BioAssay (NCI)
